Like-named read-outs stand apart in the source and are kept apart here.
Columns and labels:
Parkinson's model rats [1] = assay: Open field test, rotenone-induced PD rat model; type: in vivo; settings: 60-minute observation
Procedure: (§1) PD was simulated in rats by IP injection of rotenone (3 mg/kg/day) for 11 days. […] On day 30 of the experiment, stride length was recorded based on the spatial distance a paw travels during a stride. Animal forepaws were dipped in black non-toxic ink. The length of forelimb and hindlimb steps in the left and right limbs were measured while walking on a clean piece of paper. Stride length was defined as the distance between each step on the same side of the animal’s body, measured from the mid-digit toe of the first step to the heel of the second.
An open-field device with 16 sub-squares (40 × 40 × 30 cm; Accuscan Instruments, Columbus, OH, USA) was utilized to examine forelimb and hindlimb locomotor impairments in rats following 30 days of PD induction. Prior to the test, each rat was left in its home cage in the testing area for 2 h before being gently carried by the base of its tail to the center of the open field arena. The animal behavior was then studied for 60 min. To measure the rat’s ambulatory distance, the total number of squares crossed was recorded. Additionally, one of the non-motor characteristics of PD that has been investigated is anxiety, which is indexed by the preference exploration of the open field’s periphery. The number of individuals crossing the center zone was noted.

Parkinson's model rats [2] = assay: Stride length measurement, rotenone-induced PD rat model; type: in vivo; settings: day 30
Procedure: as §1

Parkinson's model rats [3] = assay: Catalepsy test (bar method), rotenone-induced PD rat model; type: in vivo; settings: scale 0 to 5
Procedure: as §1
The catalepsy score was determined using the bar method, which involved measuring the time that rat consumed to remove its forepaws from the rod. The rats were rated on a five-point scale: 0 (0–5 s), 1 (6–15 s), 2 (16–25 s), 3 (26–35 s), 4 (36–60 s), and 5 (>60 s). The rat’s forepaws were gently put on a steel rod positioned 10 cm above the bench. The recording begins when cataleptic animals have been held in this position for at least 30 s (the adapting time).

[4] = In vivo pharmacokinetic study of Sel in plasma and brain; settings: for AUC(0-t): AUC0–480min; for AUC(0-inf): AUC0–∞; for k el: Kel
Procedure: All animal experiments were conducted in compliance with the guidelines of the ethical committee, Faculty of Pharmacy, University of Sadat City (approval number RERC-FOP-USC-24-02-08). Adult male albino rats (200 g ± 10%) were randomly divided into two groups each of 48 animals. Animals were subjected to anesthesia using sodium thiopental via intraperitoneal injection (IP). […] At each time point, blood samples were collected from 6 animals by cardiac puncture on heparinized tube and then animals were sacrificed. Blood samples were centrifuged at 9000 rpm and the obtained plasma was stored at −80 °C until analysis. The whole brain was isolated, washed with saline, and homogenized at 10,000 rpm in ice-cold PBS (pH 7.4) for 5 min. The homogenate obtained was centrifuged at 9000 rpm for 15 min. Sel concentration in plasma and brain was quantified using LCMS/MS [49, 50]. The maximum drug concentration (Cmax), time required to achieve Cmax (Tmax), area under the concentration-time curve (AUC0–480min and AUC0–∞), mean residence time (MRT), and elimination rate constant (Kel) in both plasma and brain were calculated. All pharmacokinetics data were calculated using the pharmacokinetic software PK Solver-Add Ins for Microsoft Excel 2007. Additionally, absolute bioavailability as well as the Direct-Transport Percentage (DTP%) and Drug-Targeting Efficiency percentage (DTE%) were calculated using the following equations [51]:DTE = (AUCbrain/AUCplasma) IN/(AUCbrain/AUCplasma) IV × 100(2) DTP% = BIN − BX/BIN × 100(3) where BX = BIV/PIV × PIN
BX is the brain AUC0–480min fraction contributed by systemic circulation, following IN administration; BIV is the brain AUC0–480min following IV administration; PIV is the plasma AUC0–480min following IV administration; BIN is the brain AUC0–480min following IN administration; PIN is the plasma AUC0–480min following IN administration.

Parkinson's model rats [5] = assay: Paw placement and coverage, rotenone-induced PD rat model; type: in vivo; settings: day 30
Procedure: as §1
On day 30, the distance between the location of the behind paw and the previously placed contralateral front paw was measured during the same step cycle while the area covered when the forelimbs or hindlimbs perform a stride was recorded as the coverage area.

dopamine = type: in vivo, rats
Procedure: as §1
(§2) On day 30 of the experiment, rats were scarified and brain tissues were collected. Brain tissues were homogenized as previously described and the concentration of dopamine in the brain homogenate was assessed by HPLC-equipped with a fluorescence detector set at excitation/emission wavelengths of 280/315 nm as described elsewhere. Catalase activity in brain homogenate was measured using colorimetric assay at 570 nm using hydrogen peroxide.

catalase = type: in vivo, rats
Procedure: as §1, §2

MAO-B = type: in vivo, rats; settings: rotenone 3 mg/kg/day IP 11 days; treatment days 12 and 20; day 30; ELISA
[6] = male, albino, rat, in vivo, iv, 1 mg/kg
[7] = male, albino, rat, in vivo, iv, 1 mg/kg, brain, rat brain, Sel 1 mg/kg, route as in label
[8] = male, albino, rat, in vivo, iv, 1 mg/kg, plasma, rat plasma, Sel 1 mg/kg, route as in label
[9] = rotenone 3 mg/kg/day IP 11 days, treatment days 12 and 20, day 30, mean ± SE (n = 6)

C#CCN(C)[C@H](C)Cc1ccccc1 [IV Sel solution, Selegiline]
Number of center crossings (Parkinson's model rats [1]): 8.33 ± 1.49
Stride length, left forelimb (Parkinson's model rats [2]): 119.5 ± 2.66 mm
Catalepsy score (Parkinson's model rats [3]): 2.11 ± 0.11
Tmax [4, 6]: 0.5 h
bioavailability [4, 6]: 100%
AUC(0-t) [4, 7]: 850 ± 60 ng·h/mL
AUC(0-t) [4, 8]: 1160 ± 90 ng·h/mL
AUC(0-inf) [4, 7]: 1220 ± 150 ng·h/mL
AUC(0-inf) [4, 8]: 1540 ± 210 ng·h/mL
k el [4, 7]: 4.44e-05 s⁻¹
k el [4, 8]: 4.72e-05 s⁻¹
MRT [4, 7]: 4.56 ± 0.75 h
MRT [4, 8]: 4.22 ± 0.84 h
Cmax, brain ([4]; rat brain, Sel 1 mg/kg, route as in label): 210 ± 30 ng/mL
Paw placement, left side (Parkinson's model rats [5]): 12 ± 0.57 mm
Paw placement, right side (Parkinson's model rats [5]): 11.66 ± 1.05 mm
Dopamine concentration in brain tissue (dopamine; rat, in vivo): 125.33 ± 3.71 ng/g
Catalase activity in brain tissue (catalase; rat, in vivo): 24 ± 0.82 U/mg protein

C=C(C)[C@H]1Cc2c(ccc3c2O[C@@H]2COc4cc(OC)c(OC)cc4[C@@H]2C3=O)O1 [rotenone]
Number of center crossings (Parkinson's model rats [1]): 3.00 ± 1.91
Stride length, left forelimb (Parkinson's model rats [2]): 102 ± 4.2 mm
Catalepsy score (Parkinson's model rats [3]): 4.78 ± 0.17
MAO-B level in brain tissue (MAO-B): 256.33 ± 25.6 ng/g
Paw placement, left side (Parkinson's model rats [5]): 24.66 ± 2.02 mm
Paw placement, right side (Parkinson's model rats [5]): 30.33 ± 2.95 mm
Dopamine concentration in brain tissue (dopamine; [9]): 49.66 ± 3.23 ng/g
Catalase activity in brain tissue (catalase; [9]): 12 ± 0.85 U/mg protein
